Experimental data: patent US20240246942A1, “KINASE INHIBITORS FOR THE TREATMENT OF NEURODEGENERATIVE DISEASES” (priority 2020, published 2024)

What was measured:
Assay in all cases: biochemical
[1] = biological target: T1, panel of 374 wild-type kinases (Homo sapiens, UniProt O75676); conditions: read-out: % Enzyme Activity (relative to DMSO controls), MSK2/RPS6KA4
T1 construct: purchased Reaction Biology Corporation

[2] = biological target: T2, panel of 374 wild-type kinases (Homo sapiens, UniProt P54753); conditions: read-out: % Enzyme Activity (relative to DMSO controls), EPHB3
T2 construct: purchased Reaction Biology Corporation
T2 sequence (P54753 34-998): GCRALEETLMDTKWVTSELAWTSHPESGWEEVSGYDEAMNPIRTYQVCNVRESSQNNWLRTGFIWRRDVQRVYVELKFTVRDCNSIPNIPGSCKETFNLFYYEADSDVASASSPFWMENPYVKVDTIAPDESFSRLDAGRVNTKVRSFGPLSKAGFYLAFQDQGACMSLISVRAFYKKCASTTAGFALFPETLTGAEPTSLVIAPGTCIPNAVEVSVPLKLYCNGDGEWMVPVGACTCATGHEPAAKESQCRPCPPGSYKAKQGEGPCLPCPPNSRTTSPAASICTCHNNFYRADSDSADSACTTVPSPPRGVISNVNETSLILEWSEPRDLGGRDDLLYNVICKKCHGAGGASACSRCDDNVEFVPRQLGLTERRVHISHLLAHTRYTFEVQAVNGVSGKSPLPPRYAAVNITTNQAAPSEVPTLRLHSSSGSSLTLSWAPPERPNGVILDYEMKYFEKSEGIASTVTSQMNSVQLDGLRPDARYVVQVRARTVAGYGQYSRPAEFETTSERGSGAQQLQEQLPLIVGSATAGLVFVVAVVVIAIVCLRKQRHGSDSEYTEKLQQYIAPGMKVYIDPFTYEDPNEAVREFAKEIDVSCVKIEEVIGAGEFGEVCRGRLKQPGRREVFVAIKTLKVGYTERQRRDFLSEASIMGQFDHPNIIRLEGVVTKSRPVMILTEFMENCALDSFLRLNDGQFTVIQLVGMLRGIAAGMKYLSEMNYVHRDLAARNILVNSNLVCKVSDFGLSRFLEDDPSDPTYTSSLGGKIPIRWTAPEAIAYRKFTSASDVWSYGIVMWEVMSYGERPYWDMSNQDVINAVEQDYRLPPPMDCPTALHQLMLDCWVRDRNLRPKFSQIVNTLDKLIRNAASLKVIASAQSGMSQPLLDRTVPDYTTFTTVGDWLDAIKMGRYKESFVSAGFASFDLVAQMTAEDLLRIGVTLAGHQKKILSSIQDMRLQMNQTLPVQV

[3] = biological target: T3, panel of 374 wild-type kinases (Homo sapiens, UniProt Q13153); conditions: read-out: % Enzyme Activity (relative to DMSO controls), kinase PAK1
T3 construct: purchased Reaction Biology Corporation
T3 sequence (Q13153 whole entry): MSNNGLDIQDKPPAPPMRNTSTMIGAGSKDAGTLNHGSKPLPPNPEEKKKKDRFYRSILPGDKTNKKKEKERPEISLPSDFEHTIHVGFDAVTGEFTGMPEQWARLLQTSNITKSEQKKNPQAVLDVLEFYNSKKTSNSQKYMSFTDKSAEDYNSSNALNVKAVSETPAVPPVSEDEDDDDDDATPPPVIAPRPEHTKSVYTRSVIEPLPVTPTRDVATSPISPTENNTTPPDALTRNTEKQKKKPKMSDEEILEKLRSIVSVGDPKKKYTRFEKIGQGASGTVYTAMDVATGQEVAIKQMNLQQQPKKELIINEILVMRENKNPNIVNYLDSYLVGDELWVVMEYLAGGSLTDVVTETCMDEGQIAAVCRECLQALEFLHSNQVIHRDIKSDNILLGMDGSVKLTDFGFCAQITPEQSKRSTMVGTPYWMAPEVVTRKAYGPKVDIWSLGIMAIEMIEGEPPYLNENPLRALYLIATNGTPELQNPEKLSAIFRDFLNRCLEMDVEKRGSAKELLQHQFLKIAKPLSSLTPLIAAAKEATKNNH

[4] = biological target: T4, panel of 374 wild-type kinases (Homo sapiens, UniProt Q15759); conditions: read-out: % Enzyme Activity (relative to DMSO controls), P38b/MAPK11
T4 construct: purchased Reaction Biology Corporation
T4 sequence (Q15759 whole entry): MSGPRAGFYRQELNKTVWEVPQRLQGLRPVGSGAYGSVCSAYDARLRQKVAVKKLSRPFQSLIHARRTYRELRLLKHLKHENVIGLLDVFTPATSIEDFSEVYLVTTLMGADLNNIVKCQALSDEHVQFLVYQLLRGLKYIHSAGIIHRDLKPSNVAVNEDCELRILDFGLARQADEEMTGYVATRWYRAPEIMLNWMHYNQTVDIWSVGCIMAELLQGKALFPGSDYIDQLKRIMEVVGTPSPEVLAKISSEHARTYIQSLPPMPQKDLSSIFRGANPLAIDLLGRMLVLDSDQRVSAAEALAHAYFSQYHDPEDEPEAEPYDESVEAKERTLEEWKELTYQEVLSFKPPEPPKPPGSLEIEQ

[5] = biological target: T5, panel of 374 wild-type kinases (Homo sapiens, UniProt Q15835); conditions: read-out: % Enzyme Activity (relative to DMSO controls), GRK1
T5 construct: purchased Reaction Biology Corporation
T5 sequence (Q15835 1-563): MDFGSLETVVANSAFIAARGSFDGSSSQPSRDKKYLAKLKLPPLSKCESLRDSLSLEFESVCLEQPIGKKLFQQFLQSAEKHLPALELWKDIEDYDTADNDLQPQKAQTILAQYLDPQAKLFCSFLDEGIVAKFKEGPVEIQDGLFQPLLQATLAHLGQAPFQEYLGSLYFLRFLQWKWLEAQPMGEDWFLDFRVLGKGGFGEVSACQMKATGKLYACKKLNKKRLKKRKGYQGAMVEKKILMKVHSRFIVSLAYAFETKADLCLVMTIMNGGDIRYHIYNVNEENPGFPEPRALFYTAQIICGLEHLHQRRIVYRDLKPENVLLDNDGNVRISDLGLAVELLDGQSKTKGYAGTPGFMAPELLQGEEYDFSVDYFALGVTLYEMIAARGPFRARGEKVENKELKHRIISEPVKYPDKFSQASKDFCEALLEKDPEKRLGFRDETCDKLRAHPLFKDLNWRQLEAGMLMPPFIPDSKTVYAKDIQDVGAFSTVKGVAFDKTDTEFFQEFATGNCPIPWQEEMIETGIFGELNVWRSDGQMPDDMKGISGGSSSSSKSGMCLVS

[6] = biological target: T6, panel of 374 wild-type kinases (Homo sapiens, UniProt Q5S007); conditions: read-out: % Enzyme Activity (relative to DMSO controls), LRRK2
T6 construct: purchased Reaction Biology Corporation
T6 sequence (Q5S007 whole entry): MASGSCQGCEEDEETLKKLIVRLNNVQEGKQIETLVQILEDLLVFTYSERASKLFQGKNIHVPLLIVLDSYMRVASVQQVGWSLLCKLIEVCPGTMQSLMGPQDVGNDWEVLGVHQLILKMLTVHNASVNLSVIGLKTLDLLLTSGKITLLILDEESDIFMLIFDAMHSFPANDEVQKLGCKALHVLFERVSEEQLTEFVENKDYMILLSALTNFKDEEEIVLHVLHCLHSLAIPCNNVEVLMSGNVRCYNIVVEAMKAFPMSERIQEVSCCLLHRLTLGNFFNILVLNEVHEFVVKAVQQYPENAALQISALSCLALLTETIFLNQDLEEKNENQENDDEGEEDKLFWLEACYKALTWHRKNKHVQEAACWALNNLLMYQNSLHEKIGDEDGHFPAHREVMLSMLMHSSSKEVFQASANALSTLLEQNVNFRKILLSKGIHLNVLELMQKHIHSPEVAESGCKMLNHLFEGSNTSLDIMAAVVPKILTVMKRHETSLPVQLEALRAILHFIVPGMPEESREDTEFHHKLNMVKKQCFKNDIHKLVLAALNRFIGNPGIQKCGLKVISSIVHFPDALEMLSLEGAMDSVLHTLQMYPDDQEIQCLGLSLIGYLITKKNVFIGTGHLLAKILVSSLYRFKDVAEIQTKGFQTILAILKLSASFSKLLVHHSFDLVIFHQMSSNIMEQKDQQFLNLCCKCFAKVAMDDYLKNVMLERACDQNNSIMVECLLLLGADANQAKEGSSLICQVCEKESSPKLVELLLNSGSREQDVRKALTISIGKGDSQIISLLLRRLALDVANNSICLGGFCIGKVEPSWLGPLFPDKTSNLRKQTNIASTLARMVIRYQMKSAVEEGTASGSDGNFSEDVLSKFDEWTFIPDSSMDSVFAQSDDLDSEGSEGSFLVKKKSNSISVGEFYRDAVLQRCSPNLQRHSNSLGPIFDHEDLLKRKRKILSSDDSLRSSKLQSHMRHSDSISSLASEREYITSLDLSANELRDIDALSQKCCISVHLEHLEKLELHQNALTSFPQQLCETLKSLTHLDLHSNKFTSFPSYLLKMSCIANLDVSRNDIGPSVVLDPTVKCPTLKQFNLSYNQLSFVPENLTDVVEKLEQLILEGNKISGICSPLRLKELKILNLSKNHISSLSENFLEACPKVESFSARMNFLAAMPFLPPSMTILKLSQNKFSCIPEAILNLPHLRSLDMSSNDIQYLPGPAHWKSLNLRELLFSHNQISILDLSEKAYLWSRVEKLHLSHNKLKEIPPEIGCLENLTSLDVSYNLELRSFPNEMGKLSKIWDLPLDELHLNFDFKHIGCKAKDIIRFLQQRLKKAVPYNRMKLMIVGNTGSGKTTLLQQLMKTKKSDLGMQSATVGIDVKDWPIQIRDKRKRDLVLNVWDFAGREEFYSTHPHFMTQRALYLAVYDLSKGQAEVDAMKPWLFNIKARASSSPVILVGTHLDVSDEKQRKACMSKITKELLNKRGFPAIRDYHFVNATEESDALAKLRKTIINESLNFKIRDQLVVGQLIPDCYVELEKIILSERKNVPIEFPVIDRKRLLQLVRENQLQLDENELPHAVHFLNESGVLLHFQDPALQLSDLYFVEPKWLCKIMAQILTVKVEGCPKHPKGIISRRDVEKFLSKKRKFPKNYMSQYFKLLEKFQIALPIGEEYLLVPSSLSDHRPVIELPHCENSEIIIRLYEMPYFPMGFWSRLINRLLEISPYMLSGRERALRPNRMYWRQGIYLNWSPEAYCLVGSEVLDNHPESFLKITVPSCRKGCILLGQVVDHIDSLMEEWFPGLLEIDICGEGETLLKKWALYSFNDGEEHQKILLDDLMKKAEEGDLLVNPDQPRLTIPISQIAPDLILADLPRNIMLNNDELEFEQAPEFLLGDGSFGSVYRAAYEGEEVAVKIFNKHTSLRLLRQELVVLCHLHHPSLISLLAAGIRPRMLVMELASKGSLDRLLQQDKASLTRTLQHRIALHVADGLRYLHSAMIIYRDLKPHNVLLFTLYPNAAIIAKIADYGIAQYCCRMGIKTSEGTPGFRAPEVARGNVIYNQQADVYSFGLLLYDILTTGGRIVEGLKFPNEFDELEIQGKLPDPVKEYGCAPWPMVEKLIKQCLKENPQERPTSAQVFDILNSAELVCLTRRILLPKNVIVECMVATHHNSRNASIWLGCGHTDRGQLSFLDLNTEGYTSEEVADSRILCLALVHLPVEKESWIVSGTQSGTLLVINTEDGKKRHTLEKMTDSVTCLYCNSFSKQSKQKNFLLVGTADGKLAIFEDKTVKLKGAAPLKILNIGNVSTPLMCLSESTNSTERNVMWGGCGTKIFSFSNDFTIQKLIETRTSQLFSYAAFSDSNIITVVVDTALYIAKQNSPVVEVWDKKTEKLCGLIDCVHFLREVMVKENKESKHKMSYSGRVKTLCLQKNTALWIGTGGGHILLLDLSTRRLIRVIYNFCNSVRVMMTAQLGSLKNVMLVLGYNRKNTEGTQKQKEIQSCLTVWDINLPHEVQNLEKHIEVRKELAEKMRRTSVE

[7] = biological target: T7, panel of 374 wild-type kinases (Homo sapiens, UniProt Q7KZI7); conditions: read-out: % Enzyme Activity (relative to DMSO controls), MARK2/PAR-1Ba
T7 construct: purchased Reaction Biology Corporation

[8] = biological target: T8, panel of 374 wild-type kinases (Homo sapiens, UniProt Q86Z02); conditions: read-out: % Enzyme Activity (relative to DMSO controls), HIPK1
T8 construct: purchased Reaction Biology Corporation

[9] = biological target: T9, panel of 374 wild-type kinases (Homo sapiens, UniProt Q8TDX7); conditions: read-out: % Enzyme Activity (relative to DMSO controls), NEK7
T9 construct: purchased Reaction Biology Corporation
T9 sequence (Q8TDX7 whole entry): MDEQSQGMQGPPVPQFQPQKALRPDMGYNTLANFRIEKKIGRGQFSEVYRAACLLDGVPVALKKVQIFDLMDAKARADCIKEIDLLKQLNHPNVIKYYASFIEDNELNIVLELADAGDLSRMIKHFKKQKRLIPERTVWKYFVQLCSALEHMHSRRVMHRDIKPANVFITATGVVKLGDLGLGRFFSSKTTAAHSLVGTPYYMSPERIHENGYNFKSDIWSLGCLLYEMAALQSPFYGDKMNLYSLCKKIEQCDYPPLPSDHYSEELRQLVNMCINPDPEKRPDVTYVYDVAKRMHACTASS

T1 sequence (O75676 whole entry): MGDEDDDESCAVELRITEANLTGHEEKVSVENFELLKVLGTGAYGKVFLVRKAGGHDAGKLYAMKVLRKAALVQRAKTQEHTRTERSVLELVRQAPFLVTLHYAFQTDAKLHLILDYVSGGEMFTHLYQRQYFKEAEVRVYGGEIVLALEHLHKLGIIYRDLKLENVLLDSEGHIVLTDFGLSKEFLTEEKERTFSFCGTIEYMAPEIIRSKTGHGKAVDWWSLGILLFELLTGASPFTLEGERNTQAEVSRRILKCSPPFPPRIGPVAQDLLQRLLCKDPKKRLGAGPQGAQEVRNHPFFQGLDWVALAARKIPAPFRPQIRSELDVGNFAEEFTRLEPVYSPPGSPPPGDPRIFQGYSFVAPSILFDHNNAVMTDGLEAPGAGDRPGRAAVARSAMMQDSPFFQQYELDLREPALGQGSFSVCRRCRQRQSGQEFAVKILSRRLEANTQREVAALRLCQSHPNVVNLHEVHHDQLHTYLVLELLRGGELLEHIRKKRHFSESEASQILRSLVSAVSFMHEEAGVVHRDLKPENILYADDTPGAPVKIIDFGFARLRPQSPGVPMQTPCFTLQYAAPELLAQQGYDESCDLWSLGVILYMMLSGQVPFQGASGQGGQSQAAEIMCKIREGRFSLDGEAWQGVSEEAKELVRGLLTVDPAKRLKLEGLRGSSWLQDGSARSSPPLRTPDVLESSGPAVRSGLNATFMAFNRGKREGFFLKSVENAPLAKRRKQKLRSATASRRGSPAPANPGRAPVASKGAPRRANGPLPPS

Row | SMILES | remaining activity at 10 µM ([1]; 10 uM) [%] | remaining activity at 10 µM ([2]; 10 uM) [%] | remaining activity at 10 µM ([3]; 10 uM) [%] | remaining activity at 10 µM ([4]; 10 uM) [%] | remaining activity at 10 µM ([5]; 10 uM) [%] | remaining activity at 10 µM ([6]; 10 uM) [%] | remaining activity at 10 µM ([7]; 10 uM) [%] | remaining activity at 10 µM ([8]; 10 uM) [%] | remaining activity at 10 µM ([9]; 10 uM) [%] | remaining activity at 5 µM [1] [%] | remaining activity at 5 µM [2] [%] | remaining activity at 5 µM [3] [%] | remaining activity at 5 µM [4] [%] | remaining activity at 5 µM [5] [%] | remaining activity at 5 µM [6] [%] | remaining activity at 5 µM [7] [%] | remaining activity at 5 µM [8] [%] | remaining activity at 5 µM [9] [%]
1 | Cc1sc(C(=O)NC2COC2)cc1-n1cc(NC(=O)Nc2c(F)cccc2Cl)cn1 [Compound 27, 4-(4-(3-(2-chloro-6-fluorophenyl)ureido)-1H-pyrazol-1-yl)-5-methyl-N-(oxetan-3-yl)thiophene-2-carboxamide] | 105 | 97.2 | 104 | 94.3 | 113 | 101 | 99.8 | 116 | 100 | – | – | – | – | – | – | – | – | –
2 | O=C(Nc1cnn(-c2csc(C(=O)NC3COC3)c2)c1)Nc1c(F)cccc1Cl [Compound 25, 4-(4-(3-(2-chloro-6-fluorophenyl)ureido)-1H-pyrazol-1-yl)-N-(oxetan-3-yl)thiophene-2-carboxamide] | – | – | – | – | – | – | – | – | – | 99.8 | 96.5 | 81.2 | 91.7 | 92.9 | 91.3 | 90.7 | 91.7 | 88.1
3 | O=C(Nc1cnn(-c2csc(C(=O)NC3COC3)c2)c1)Nc1ccccc1Cl [Compound 17, 4-(4-(3-(2-chlorophenyl)ureido)-1H-pyrazol-1-yl)-N-(oxetan-3-yl)thiophene-2-carboxamide] | – | – | – | – | – | – | – | – | – | 90.7 | 95.6 | 106 | 101 | 91.9 | 88.2 | 104 | 96.3 | 102
